The record followed here is patent US7354927B2, “6H-[1]benzopyrano[4,3-b]quinolines and their use as estrogenic agents” (Wyeth, priority 2004, dated 2008).

One may read the pIC50 as −log10 of the IC50, conventionally taken in molar units. Broadly, the melting point is the temperature of the solid-liquid transition.

pIC50: −log10 of the molar value.

One series has as its target T1, human ERα (Homo sapiens, UniProt P03372).
T1 construct: made in house; host or cells: E. coli (crude lysate)
T1 sequence (P03372 311-547 limits assumed): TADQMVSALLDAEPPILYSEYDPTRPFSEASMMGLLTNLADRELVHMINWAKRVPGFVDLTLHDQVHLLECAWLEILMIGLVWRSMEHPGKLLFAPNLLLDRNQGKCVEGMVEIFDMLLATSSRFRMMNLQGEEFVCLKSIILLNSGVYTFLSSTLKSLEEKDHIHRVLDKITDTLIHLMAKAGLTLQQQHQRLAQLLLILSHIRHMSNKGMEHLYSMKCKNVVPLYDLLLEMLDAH
Description: Competition with [3H]-17β-estradiol for binding to the ERα ligand binding domain. The following applies: E. coli lysate expressing human ERα LBD; 2 nM [3H]-17β-estradiol; 5-15 hours at room temperature. How it is done: (§1) Representative examples of the invention were evaluated for their ability to compete with 17β-estradiol for both ERα and ERβ. The test procedure used allows one to determine whether a particular compound binds to the estrogen receptor (and is therefore “estrogenic”) and whether there is selectivity for ERα or ERβ. […] The IC50 is defined as the concentration of compound that decreases total 17β-estradiol binding by 50%. The procedure used is briefly described. A crude lysate of E. coil expressing the estrogen receptor ligand binding domains (D, E, and F) of human ERα or ERβ was prepared. Both receptors and compounds were diluted in 1× Dulbecco's phosphate buffered saline (DPBS) supplemented with 1 mM ethylenediamine tetraacetic acid (EDTA). Using a high binding masked microtiter plate, 100 uL of receptor (1 uG/well) was combined with 2 nM [^3H]-17β-estradiol and various concentrations of compound. After between 5 and 15 hours at room temperature, the plates were washed with DPBS/1 mM EDTA and bound radioactivity determined by liquid scintillation counting.

The next series deals with T2, human ERβ (Homo sapiens, UniProt Q92731).
T2 construct: made in house; host or cells: E. coli (crude lysate)
T2 sequence (Q92731 264-498 limits assumed): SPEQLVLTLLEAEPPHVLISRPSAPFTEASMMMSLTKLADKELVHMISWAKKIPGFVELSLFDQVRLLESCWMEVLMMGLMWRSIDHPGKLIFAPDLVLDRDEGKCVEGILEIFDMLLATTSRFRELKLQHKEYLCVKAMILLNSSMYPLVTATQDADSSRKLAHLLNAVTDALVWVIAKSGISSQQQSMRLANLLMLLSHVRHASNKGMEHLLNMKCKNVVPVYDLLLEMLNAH
Description: Competition with [3H]-17β-estradiol for binding to the ERβ ligand binding domain. The following applies: for pIC50: E. coli lysate expressing human ERβ LBD, 2 nM [3H]-17β-estradiol, 5-15 hours at room temperature. How it is done: as §1

With `N#Cc1ccc(-c2c3c(nc4ccc(O)cc24)-c2ccc(O)cc2OC3)cc1` [Cpd 14, 7-(4-CYANOPHENYL)-3,9-DIHYDROXY-6H-CHROMENO[4,3-b]QUINOLINE], the melting point was 295 °C (dec.). At human ERα, this molecule gave a pIC50 of 5.85. At human ERβ, the pIC50 was 7.09 and the “α/β receptor selectivity (ratio of ERα IC50 to ERβ IC50)” value stood at 17.
For `Oc1ccc2c(c1)OCc1c-2nc2ccc(O)cc2c1Cl` [Cpd 6, 7-CHLORO-3,9-DIHYDROXY-6H-CHROMENO[4,3-b]QUINOLINE], the melting point is 235 °C (dec.). Moreover, the pIC50 on human ERα was 7.06. Besides, at human ERβ, the negative logarithm of the IC50 (pIC50) was 8.48 and the “α/β receptor selectivity (ratio of ERα IC50 to ERβ IC50)” value was 27.
The like results for `COc1cccc(-c2c3c(nc4ccc(O)cc24)-c2ccc(O)cc2OC3)c1` [Cpd 18, 3,9-DIHYDROXY-7-(3-METHOXYPHENYL)-6H-CHROMENO[4,3-b]QUINOLINE] were, in that order, 155 to 158 °C (dec.), 6.09, 7.07 and 10.
For the molecule `C[Si](C)(C)C#Cc1c2c(nc3ccc(O)cc13)-c1ccc(O)cc1OC2` [Cpd 9, 3,9-DIHYDROXY-7-[(TRIMETHYLSILYL)ETHYNYL]-6H-CHROMENO[4,3-b]QUINOLINE], the melting point is 160 °C (dec.). The pIC50 on human ERα is 6.77. Besides, on human ERβ, the negative-log IC50 (pIC50) is 6.65 and the “α/β receptor selectivity (ratio of ERα IC50 to ERβ IC50)” value was 0.8.
The like results for `Oc1ccc2c(c1)OCc1c-2nc2ccc(O)cc2c1-c1cccc(Cl)c1` [Cpd 17, 7-(3-CHLOROPHENYL)-3,9-DIHYDROXY-6H-CHROMENO[4,3-b]QUINOLINE] were, in that order, 162 to 165 °C (dec.), 6.30, 6.89 and 4.
As for `Oc1ccc2c(c1)OCc1c-2nc2ccc(O)cc2c1-c1ccc(Cl)cc1` [Cpd 13, 7-(4-CHLOROPHENYL)-3,9-DIHYDROXY-6H-CHROMENO[4,3-b]QUINOLINE], the melting point is 215 to 218 °C (dec.). On human ERα, the pIC50 was 5.51. On human ERβ, the pIC50 is 6.80 and the “α/β receptor selectivity (ratio of ERα IC50 to ERβ IC50)” value came out at 19.
As for `Oc1ccc2c(c1)OCc1c-2nc2ccc(O)cc2c1Br` [Cpd 7, 7-BROMO-3,9-DIHYDROXY-6H-CHROMENO[4,3-b]QUINOLINE], the melting point is 240 °C (dec.). In addition, the pIC50 at human ERα is 7.20. At human ERβ, the pIC50 is 8.44 and the “α/β receptor selectivity (ratio of ERα IC50 to ERβ IC50)” value was determined as 18.
Molecule `COc1ccc2c(c1)OCc1c-2nc2ccc(OC)cc2c1Cl` [Cpd 4, 7-CHLORO-3,9-DIMETHOXY-6H-CHROMENO[4,3-b]QUINOLINE] gave a melting point of 190 to 191 °C.
In the case of `CCc1c2c(nc3ccc(O)cc13)-c1ccc(O)cc1OC2` [Cpd 11, 3,9-DIHYDROXY-7-ETHYL-6H-CHROMENO[4,3-b]QUINOLINE], the melting point is 145 °C (dec.). Moreover, the negative-log IC50 (pIC50) at human ERα was 7.18. At human ERβ, the negative-log IC50 (pIC50) is 8.30 and the “α/β receptor selectivity (ratio of ERα IC50 to ERβ IC50)” value stood at 13.
Molecule `COc1ccc2c(c1)OCc1c-2nc2ccc(OC)cc2c1Br` [Cpd 5, 7-BROMO-3,9-DIMETHOXY-6H-CHROMENO[4,3-b]QUINOLINE] had a melting point of 196 to 197 °C.
Take `Oc1ccc2c(c1)OCc1c-2nc2ccc(O)cc2c1-c1ccc(C(F)(F)F)cc1` [Cpd 16, 3,9-DIHYDROXY-7-[4-(TRIFLUOROMETHYL)PHENYL]-6H-CHROMENO[4,3-b]QUINOLINE]: the melting point was 175 to 177 °C (dec.). The pIC50 on human ERα was 5.22. For the same molecule, at human ERβ, the pIC50 is 6.86 and the “α/β receptor selectivity (ratio of ERα IC50 to ERβ IC50)” value was 44.
In the case of `C#Cc1c2c(nc3ccc(O)cc13)-c1ccc(O)cc1OC2` [Cpd 10, 3,9-DIHYDROXY-7-ETHYNYL-6H-CHROMENO[4,3-b]QUINOLINE], the melting point is 220 °C (dec.). At human ERα, the pIC50 is 6.88. In addition, on human ERβ, the pIC50 is 7.43 and the “α/β receptor selectivity (ratio of ERα IC50 to ERβ IC50)” value was 3.
`N#Cc1cccc(-c2c3c(nc4ccc(O)cc24)-c2ccc(O)cc2OC3)c1` [Cpd 19, 7-(3-CYANOPHENYL)-3,9-DIHYDROXY-6H-CHROMENO[4,3-b]QUINOLINE]: the melting point was 275 °C (dec.). This molecule had a pIC50 at human ERα of 5.95. On human ERβ, the pIC50 is 6.82 and the “α/β receptor selectivity (ratio of ERα IC50 to ERβ IC50)” value came to 8.
The corresponding values for `COc1ccc(-c2c3c(nc4ccc(O)cc24)-c2ccc(O)cc2OC3)cc1` [Cpd 15, 3,9-DIHYDROXY-7-(4-METHOXYPHENYL)-6H-CHROMENO[4,3-b]QUINOLINE] are 195 °C (dec.), 6.45, 7.21 and 6.
Turning to `N#Cc1c2c(nc3ccc(O)cc13)-c1ccc(O)cc1OC2` [Cpd 12, 7-CYANO-3,9-DIHYDROXY-6H-CHROMENO[4,3-b]QUINOLINE], the pIC50 at human ERα is 7.40. In addition, on human ERβ, the pIC50 is 8.25 and the “α/β receptor selectivity (ratio of ERα IC50 to ERβ IC50)” value is on record as 7.
For the molecule `C=Cc1c2c(nc3ccc(O)cc13)-c1ccc(O)cc1OC2` [Cpd 8, 3,9-DIHYDROXY-7-VINYL-6H-CHROMENO[4,3-b]QUINOLINE], the melting point was 160 °C (dec.). Besides, the pIC50 on human ERα was 6.26. Besides, at human ERβ, the negative logarithm of the IC50 (pIC50) was 7.51 and the “α/β receptor selectivity (ratio of ERα IC50 to ERβ IC50)” value was found to be 18.
